Results reported in ChEMBL document CHEMBL1150074, “Cytotoxic aromatic triterpenes from Maytenus ilicifolia and Maytenus chuchuhuasca” (J Nat Prod, 1994).
≈ marks a conversion by molar mass, not a printed value.

Assays:
Format in all cases: functional, cell-based
[1] = tested on: L1210; assay: Cytotoxicity against mouse L1210 cells by MTT assay
[2] = tested on: P388; assay: Cytotoxicity against mouse P388 cells by MTT assay
[3] = tested on: KB; assay: Cytotoxicity against human KB cells by MTT assay

Compound | IC50 [1] [µg/mL] | IC50 [2] [µg/mL] | IC50 [3] [µg/mL]
COC(=O)[C@]1(C)CC[C@]2(C)CC[C@]3(C)C4=CC(=O)c5c(cc(O)c(O)c5C)[C@]4(C)CC[C@@]3(C)[C@@H]2C1 | 2.8 (≈ 5.83 µM) | 1.5 (≈ 3.12 µM) | 2.8 (≈ 5.83 µM)
COc1c(O)cc2c(c1CO)C(=O)C=C1[C@@]2(C)CC[C@]2(C)[C@@H]3C[C@@H](C)C(=O)[C@@H](O)[C@]3(C)CC[C@]12C |  | 4.3 (≈ 8.91 µM) | 
COc1c(O)cc2c(c1C)C(=O)C=C1[C@@]2(C)CC[C@]2(C)[C@@H]3C[C@@H](C)C(=O)C[C@]3(C)CC[C@]12C | > 100 | > 100 | 11 (≈ 24.4 µM)
Cc1c(O)c(O)cc2c1C(=O)C=C1[C@@]2(C)CC[C@@]2(C)[C@@H]3C[C@@H](C)C(=O)C[C@]3(C)CC[C@]12C [6-OXOTINGENOL] | 6 (≈ 13.7 µM) | 2.6 (≈ 5.96 µM) | 30 (≈ 68.7 µM)
COC(=O)[C@]1(C)CC[C@]2(C)CC[C@]3(C)C4=CC=C5C(=CC(=O)C(O)=C5C)[C@]4(C)CC[C@@]3(C)[C@@H]2C1 [PRISTIMERIN] | 0.36 (≈ 0.775 µM) | 0.12 (≈ 0.258 µM) | 0.55 (≈ 1.18 µM)
CC1=C(O)C(=O)C=C2C1=CC=C1[C@@]2(C)CC[C@@]2(C)[C@@H]3C[C@@H](C)C(=O)[C@@H](O)[C@]3(C)CC[C@]12C [TINGENIN B] |  | 0.012 (≈ 0.0275 µM) | 
CC1=C(O)C(=O)C=C2C1=CC=C1[C@@]2(C)CC[C@@]2(C)[C@@H]3C[C@@H](C)C(=O)C[C@]3(C)CC[C@]12C [TINGENONE] | 0.14 (≈ 0.333 µM) | 0.041 (≈ 0.0975 µM) | 0.28 (≈ 0.666 µM)
